Converted amounts (≈) assume the structure as drawn.
Experiments:
Assay type in all cases: functional
[1] = system: Staphylococcus aureus; test: Antibacterial activity against erythromycin, methicillin-resistant Staphylococcus aureus A333 by broth microdilution method
[2] = system: Haemophilus influenzae; test: Antibacterial activity against ampicillin-resistant Haemophilus influenzae 3300 by broth microdilution method
[3] = system: Staphylococcus aureus; test: Antibacterial activity against erythromycin-resistant, methicillin-susceptible Staphylococcus aureus A265 by broth microdilution method
[4] = system: Streptococcus pneumoniae; test: Antibacterial activity against erythromycin-susceptible Streptococcus pneumoniae ATCC 49619 by broth microdilution method
[5] = system: Haemophilus influenzae; test: Antibacterial activity against ampicillin-susceptible Haemophilus influenzae ATCC 49247 by broth microdilution method
[6] = system: Streptococcus pneumoniae; test: Antibacterial activity against erythromycin-resistant Streptococcus pneumoniae 3469 by broth microdilution method
[7] = system: Staphylococcus aureus; test: Antibacterial activity against erythromycin-susceptible Staphylococcus aureus ATCC 25923 by broth microdilution method

Row | Compound | MIC [1] [µg/mL] | MIC [2] [µg/mL] | MIC [3] [µg/mL] | MIC [4] [µg/mL] | MIC [5] [µg/mL] | MIC [6] [µg/mL] | MIC [7] [µg/mL]
1 | CC[C@H]1OC(=O)[C@H](C)[C@@H](OC(=O)NC2CCCCC2)[C@H](C)[C@@H](O[C@@H]2O[C@H](C)C[C@H](N(C)C)[C@H]2O)[C@](C)(OC)C[C@@H](C)C(=O)[C@@H](C)[C@@H](OC)[C@]1(C)O | > 64 | 4 (≈ 5.49 µM) | 2 (≈ 2.74 µM) | 0.125 (≈ 0.171 µM) | 4 (≈ 5.49 µM) | 0.125 (≈ 0.171 µM) | 8 (≈ 11 µM)
2 | CC[C@H]1OC(=O)[C@H](C)[C@@H](OC(=O)NCCCOC)[C@H](C)[C@@H](O[C@@H]2O[C@H](C)C[C@H](N(C)C)[C@H]2O)[C@](C)(OC)C[C@@H](C)C(=O)[C@@H](C)[C@@H](OC)[C@]1(C)O | > 64 | 16 (≈ 22.3 µM) | 4 (≈ 5.56 µM) | 0.125 (≈ 0.174 µM) | 32 (≈ 44.5 µM) | 0.125 (≈ 0.174 µM) | 8 (≈ 11.1 µM)
3 | CC[C@H]1OC(=O)[C@H](C)[C@@H](OC(=O)NCc2ccc(Cl)cc2)[C@H](C)[C@@H](O[C@@H]2O[C@H](C)C[C@H](N(C)C)[C@H]2O)[C@](C)(OC)C[C@@H](C)C(=O)[C@@H](C)[C@@H](OC)[C@]1(C)O | > 64 | 4 (≈ 5.19 µM) | 0.125 (≈ 0.162 µM) | 0.125 (≈ 0.162 µM) | 2 (≈ 2.59 µM) | 0.5 (≈ 0.648 µM) | 4 (≈ 5.19 µM)
4 | CC[C@H]1OC(=O)[C@H](C)[C@@H](OC(=O)NCCc2ccc(O)cc2)[C@H](C)[C@@H](O[C@@H]2O[C@H](C)C[C@H](N(C)C)[C@H]2O)[C@](C)(OC)C[C@@H](C)C(=O)[C@@H](C)[C@@H](OC)[C@]1(C)O | > 64 | 8 (≈ 10.4 µM) | 2 (≈ 2.61 µM) | 0.25 (≈ 0.326 µM) | 8 (≈ 10.4 µM) | 0.25 (≈ 0.326 µM) | 4 (≈ 5.22 µM)
5 | CCCCNC(=O)O[C@H]1[C@H](C)[C@@H](O[C@@H]2O[C@H](C)C[C@H](N(C)C)[C@H]2O)[C@](C)(OC)C[C@@H](C)C(=O)[C@@H](C)[C@@H](OC)[C@](C)(O)[C@@H](CC)OC(=O)[C@@H]1C | > 64 | 4 (≈ 5.69 µM) | 1 (≈ 1.42 µM) | 0.125 (≈ 0.178 µM) | 4 (≈ 5.69 µM) | 0.125 (≈ 0.178 µM) | 1 (≈ 1.42 µM)
6 | CC[C@H]1OC(=O)[C@H](C)[C@@H](O[C@H]2C[C@@](C)(OC)[C@@H](O)[C@H](C)O2)[C@H](C)[C@@H](O[C@@H]2O[C@H](C)C[C@H](N(C)C)[C@H]2O)[C@](C)(OC)C[C@@H](C)C(=O)[C@H](C)[C@@H](O)[C@]1(C)O [CLARITHROMYCIN] | > 64 | 8 (≈ 10.7 µM) | 4 (≈ 5.35 µM) | 0.25 (≈ 0.334 µM) | 8 (≈ 10.7 µM) | 2 (≈ 2.67 µM) | 0.25 (≈ 0.334 µM)
7 | CC[C@H]1OC(=O)[C@H](C)[C@@H](OC(=O)NCCc2ccc(OC)c(OC)c2)[C@H](C)[C@@H](O[C@@H]2O[C@H](C)C[C@H](N(C)C)[C@H]2O)[C@](C)(OC)C[C@@H](C)C(=O)[C@@H](C)[C@@H](OC)[C@]1(C)O | > 64 | 32 (≈ 39.5 µM) | 8 (≈ 9.86 µM) | 0.125 (≈ 0.154 µM) | 32 (≈ 39.5 µM) | 0.25 (≈ 0.308 µM) | 2 (≈ 2.47 µM)
8 | CC[C@H]1OC(=O)[C@H](C)[C@@H](O[C@H]2C[C@@](C)(OC)[C@@H](O)[C@H](C)O2)[C@H](C)[C@@H](O[C@@H]2O[C@H](C)C[C@H](N(C)C)[C@H]2O)[C@](C)(O)C[C@@H](C)C(=O)[C@H](C)[C@@H](O)[C@]1(C)O [ERYTHROMYCIN] | > 64 | 16 (≈ 21.8 µM) | 2 (≈ 2.73 µM) | 0.25 (≈ 0.341 µM) | 16 (≈ 21.8 µM) | 1 (≈ 1.36 µM) | 0.125 (≈ 0.17 µM)
9 | CCCCOCCCNC(=O)O[C@H]1[C@H](C)[C@@H](O[C@@H]2O[C@H](C)C[C@H](N(C)C)[C@H]2O)[C@](C)(OC)C[C@@H](C)C(=O)[C@@H](C)[C@@H](OC)[C@](C)(O)[C@@H](CC)OC(=O)[C@@H]1C | > 64 | 64 (≈ 84.1 µM) | 16 (≈ 21 µM) | 2 (≈ 2.63 µM) | 32 (≈ 42 µM) | > 64 | 4 (≈ 5.26 µM)
10 | CC[C@H]1OC(=O)[C@H](C)[C@@H](OC(=O)NCc2ccco2)[C@H](C)[C@@H](O[C@@H]2O[C@H](C)C[C@H](N(C)C)[C@H]2O)[C@](C)(OC)C[C@@H](C)C(=O)[C@@H](C)[C@@H](OC)[C@]1(C)O | > 64 | 2 (≈ 2.75 µM) | 1 (≈ 1.38 µM) | 0.5 (≈ 0.688 µM) | 2 (≈ 2.75 µM) | 16 (≈ 22 µM) | 2 (≈ 2.75 µM)
11 | CC[C@H]1OC(=O)[C@H](C)[C@@H](OC(=O)NCc2ccc(O)cc2)[C@H](C)[C@@H](O[C@@H]2O[C@H](C)C[C@H](N(C)C)[C@H]2O)[C@](C)(OC)C[C@@H](C)C(=O)[C@@H](C)[C@@H](OC)[C@]1(C)O | > 64 | 1 (≈ 1.33 µM) | 0.25 (≈ 0.332 µM) | 1 (≈ 1.33 µM) | 1 (≈ 1.33 µM) | 32 (≈ 42.5 µM) | 1 (≈ 1.33 µM)
12 | CCCCCNC(=O)O[C@H]1[C@H](C)[C@@H](O[C@@H]2O[C@H](C)C[C@H](N(C)C)[C@H]2O)[C@](C)(OC)C[C@@H](C)C(=O)[C@@H](C)[C@@H](OC)[C@](C)(O)[C@@H](CC)OC(=O)[C@@H]1C | > 64 | 4 (≈ 5.58 µM) | 4 (≈ 5.58 µM) | 0.125 (≈ 0.174 µM) | 4 (≈ 5.58 µM) | 0.25 (≈ 0.349 µM) | 2 (≈ 2.79 µM)

Reference: ChEMBL document CHEMBL1240419, “Synthesis and antibacterial activity of 3-O-carbamoyl derivatives of 6,11-di-O-methylerythromycin A: a novel class of acylides” (2010)
